Test results taken from US11566007B2, “Ras inhibitors” (Revolution Medicines, Inc., priority 2019, dated 2023).
Like-named read-outs stand apart in the source and are kept apart here.

Assays:
KRAS G13D = KRAS G13D (Homo sapiens (Human), UniProt P01116+P62937, G13D); assay: Ras-Raf (BRAF RBD) disruption / FRET / MOA assay, KRAS G13D; format: biochemical
Procedure, shortened: (§1)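 Ras:RAF disruption was scored as a fall in TR-FRET ratio relative to DMSO. Compound ranged in 3-fold steps over 10 points from 30 μM final; incubation ran 3 h at 25° C, detection antibodies a further 1.5 h. Reported as IC50.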

[1] = system: NCI-H358 cells (K-Ras G12C); assay: Potency assay: pERK in NCI-H358 cells; format: cell-based, human; details: Homo sapiens, NCI-H358; H358 KRAS G12C; read-out: pERK EC50
Procedure, shortened: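 4 h cpd, 37 °C; 10-pt 3-fold series, 10 mM DMSO top stock, duplicates. Readout pERK: AlphaLISA SureFire Ultra or In-Cell Western (IR-800CW secondary, DRAQ5 DNA stain). IC50, 4-PL fit vs log conc.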

K-Ras G13C = K-Ras G13C (Homo sapiens (Human), UniProt P01116+P62937, G13C); assay: Ras-Raf (BRAF RBD) disruption / FRET / MOA assay, KRAS G13C; format: biochemical; details: KRAS G13C, Ras-Raf disruption/FRET/MOA assay
K-Ras G13C, sequence (P01116-2 other isoform, or with tags, fused parts or gaps G13C): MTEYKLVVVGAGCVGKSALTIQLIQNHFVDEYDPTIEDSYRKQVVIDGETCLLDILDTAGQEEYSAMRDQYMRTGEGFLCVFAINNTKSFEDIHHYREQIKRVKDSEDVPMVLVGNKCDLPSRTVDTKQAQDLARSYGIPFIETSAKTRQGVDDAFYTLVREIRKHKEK
K-Ras G13C, sequence (P62937 whole entry): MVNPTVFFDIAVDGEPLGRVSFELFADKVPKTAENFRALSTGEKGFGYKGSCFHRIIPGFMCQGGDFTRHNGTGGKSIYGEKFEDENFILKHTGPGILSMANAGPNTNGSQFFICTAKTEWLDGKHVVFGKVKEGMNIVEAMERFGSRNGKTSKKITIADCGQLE
Procedure, shortened: as §1

NRAS Q61K = NRAS Q61K (Homo sapiens (Human), UniProt P01111+P62937, Q61K); assay: Ras-Raf (BRAF RBD) disruption / FRET / MOA assay, NRAS Q61K; format: biochemical; details: NRAS Q61K; Ras-Raf disruption/FRET/MOA assay; read-out: IC50* NRAS Q61K FRET data
NRAS Q61K, sequence (P01111 whole entry Q61K): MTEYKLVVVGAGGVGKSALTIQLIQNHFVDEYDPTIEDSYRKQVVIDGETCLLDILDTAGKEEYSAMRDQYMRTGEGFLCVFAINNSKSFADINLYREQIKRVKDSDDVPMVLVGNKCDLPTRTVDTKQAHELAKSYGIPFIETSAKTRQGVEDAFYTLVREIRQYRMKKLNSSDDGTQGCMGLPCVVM
NRAS Q61K, sequence (P62937 whole entry): as the sequence (P62937 whole entry) above
Procedure, shortened: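 TR-FRET disruption of nucleotide-loaded Ras binding to BRAF RBD via compound-driven ternary complex with cyclophilin A. Compound as 10-point 3-fold series from 30 μM final, 3 h at 25° C, then anti-His Eu-W1024 (10 nM) and anti-GST allophycocyanin (50 nM) for 1.5 h. IC50 from decreased FRET ratio versus DMSO.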

KRAS G12S = KRAS G12S (Homo sapiens (Human), UniProt P01116+P62937, G12S); assay: Ras-Raf (BRAF RBD) disruption / FRET / MOA assay, KRAS G12S; format: biochemical; details: class symbols
KRAS G12S, sequence (P01116-2 other isoform, or with tags, fused parts or gaps G12S): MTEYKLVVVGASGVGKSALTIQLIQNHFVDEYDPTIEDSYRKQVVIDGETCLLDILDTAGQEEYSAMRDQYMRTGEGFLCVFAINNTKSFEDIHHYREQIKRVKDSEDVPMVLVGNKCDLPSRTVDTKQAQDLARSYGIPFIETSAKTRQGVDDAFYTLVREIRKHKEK
KRAS G12S, sequence (P62937 whole entry): as the sequence (P62937 whole entry) above
Procedure, shortened: as §1

NRAS G12C = NRAS G12C (Homo sapiens (Human), UniProt P01111+P62937, G12C); assay: Ras-Raf (BRAF RBD) disruption / FRET / MOA assay, NRAS G12C; format: biochemical
NRAS G12C, sequence (P01111 whole entry G12C): as the sequence (P01111 whole entry Q61K) above, with G12C, K61Q counted along it
NRAS G12C, sequence (P62937 whole entry): as the sequence (P62937 whole entry) above
Procedure, shortened: as §1

KRAS WT = KRAS WT (Homo sapiens (Human), UniProt P01116+P62937); assay: Ras-Raf (BRAF RBD) disruption / FRET / MOA assay, KRAS WT; format: biochemical
KRAS WT, sequence (P01116-2 other isoform, or with tags, fused parts or gaps): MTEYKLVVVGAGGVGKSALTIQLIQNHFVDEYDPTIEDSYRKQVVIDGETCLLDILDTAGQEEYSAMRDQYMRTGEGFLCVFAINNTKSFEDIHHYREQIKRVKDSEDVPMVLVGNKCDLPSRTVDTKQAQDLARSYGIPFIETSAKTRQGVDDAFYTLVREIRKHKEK
KRAS WT, sequence (P62937 whole entry): as the sequence (P62937 whole entry) above
Procedure, shortened: as §1

[2] = read-out: IC50* KRAS G13D FRET data
[3] = read-out: IC50* KRAS G13C FRET data
[4] = Ras-Raf disruption/FRET/MOA assay, read-out: KRAS G12S FRET data IC50
[5] = read-out: IC50* NRAS G12C FRET data
[6] = read-out: IC50* KRAS WT FRET data

KRAS G13D, sequence (P01116-2 other isoform, or with tags, fused parts or gaps G13D): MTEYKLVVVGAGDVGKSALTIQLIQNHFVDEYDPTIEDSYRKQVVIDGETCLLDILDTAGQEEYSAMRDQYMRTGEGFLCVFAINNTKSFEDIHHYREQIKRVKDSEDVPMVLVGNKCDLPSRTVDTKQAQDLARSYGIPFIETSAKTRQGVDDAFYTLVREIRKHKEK
KRAS G13D, sequence (P62937 whole entry): as the sequence (P62937 whole entry) above

SMILES	IC50 (KRAS G13D; [2]) [nM]	EC50 [1] [nM]	IC50 (K-Ras G13C; [3]) [nM]	IC50 (NRAS Q61K) [nM]	IC50 (KRAS G12S; [4]) [nM]	IC50 (NRAS G12C; [5]) [nM]	IC50 (KRAS WT; [6]) [nM]	IC50 (KRAS G13D; IC50* KRAS G13D FRET data) [nM]	IC50 (K-Ras G13C; IC50* KRAS G13C FRET data) [nM]	IC50 (KRAS G12S; KRAS G12S FRET data IC50, Ras-Raf disruption/FRET/MOA assay) [nM]	IC50 (NRAS G12C; IC50* NRAS G12C FRET data) [nM]	IC50 (KRAS WT; IC50* KRAS WT FRET data) [nM]
C=CC(=O)N1CC2(CCN2C(=O)N(C)[C@H](C(=O)N[C@H]2Cc3nc(n(C)n3)-c3ccc4c(c3)c(c(-c3cccnc3[C@H](C)OC)n4CC)CC(C)(C)COC(=O)[C@@H]3CCCN(N3)C2=O)C(C)C)C1 (atropisomer, axis not shown) [Example A612]	100 to 1000	< 5000	100 to 1000	10 to 100	100 to 1000	< 10	100 to 1000	–	–	–	–	–
CCn1c(-c2cccnc2[C@H](C)OC)c2c3cc(ccc31)N1CCC[C@@H](C[C@H](NC(=O)[C@H](C(C)C)N(C)C(=O)C3(F)CCN(C(=O)C#CC(C)(C)N(C)C)CC3)C(=O)N3CCC[C@H](N3)C(=O)OCC(C)(C)C2)C1 (atropisomer, axis not shown) [Example A615]	> 10000	< 5000	> 10000	> 10000	> 10000	10 to 100	> 10000	–	–	–	–	–
C=C(F)C(=O)N1CC2(CCN(C(=O)N(C)[C@H](C(=O)N[C@H]3Cc4nc(cs4)-c4ccc5c(c4)c(c(-c4cccnc4[C@H](C)OC)n5CC)CC(C)(C)COC(=O)[C@@H]4CCCN(N4)C3=O)C(C)C)CC2)C1 (atropisomer, axis not shown) [Example A682]	100 to 1000	< 5000	100 to 1000	10 to 100	100 to 1000	10 to 100	100 to 1000	–	–	–	–	–
C=CC(=O)Nc1ccc(C(=O)N(C)[C@H](C(=O)N[C@H]2Cc3cc(O)cc(c3)-c3ccc4c(c3)c(c(-c3cccnc3[C@H](C)OC)n4CC)CC(C)(C)COC(=O)[C@@H]3CCCN(N3)C2=O)C(C)C)nc1 (atropisomer, axis not shown) [Example A252]	100 to 1000	< 5000	< 10	1000 to 10000	100 to 1000	10 to 100	100 to 1000	–	–	–	–	–
C=CC(=O)N1CC[C@@]2(CCN(C(=O)N(C)[C@H](C(=O)N[C@H]3Cc4nc(cs4)-c4ccc5c(c4)c(c(-c4cccnc4[C@H](C)OC)n5CC)CC(C)(C)COC(=O)[C@@H]4CCCN(N4)C3=O)C(C)C)C2)C1 (atropisomer, axis not shown) [Example A367]	100 to 1000	< 5000	100 to 1000	10 to 100	10 to 100	10 to 100	10 to 100	–	–	–	–	–
C=CS(=O)(=O)N1CC2(CCN([C@H](C(=O)N[C@H]3Cc4cc(O)cc(c4)-c4ccc5c(c4)c(c(-c4cccnc4[C@H](C)OC)n5CC)CC(C)(C)COC(=O)[C@@H]4CCCN(N4)C3=O)C(C)C)C2=O)C1 (atropisomer, axis not shown) [Example A297]	100 to 1000	< 5000	< 10	10 to 100	100 to 1000	< 10	10 to 100	–	–	–	–	–
C=CC(=O)N1CCO[C@H]2CN(C(=O)N(C)[C@H](C(=O)N[C@H]3Cc4nc(cs4)-c4ccc5c(c4)c(c(-c4cccnc4[C@H](C)OC)n5CC)CC(C)(C)COC(=O)[C@@H]4CCCN(N4)C3=O)C(C)C)C[C@H]21 (atropisomer, axis not shown) [Example A706]	1000 to 10000	< 5000	10 to 100	100 to 1000	1000 to 10000	10 to 100	1000 to 10000	–	–	–	–	–
C=CC(=O)N1CCO[C@H]2CN(C(=O)N(C)[C@H](C(=O)N[C@H]3Cc4cc(C(F)F)cc(n4)-c4ccc5c(c4)c(c(-c4cccnc4[C@H](C)OC)n5CC(F)(F)F)CC(C)(C)COC(=O)[C@@H]4CCCN(N4)C3=O)C(C)C)C[C@H]21 (atropisomer, axis not shown) [Example A540]	–	< 5000	–	1000 to 10000	–	–	–	1000 to 10000	10 to 100	1000 to 10000	100 to 1000	1000 to 10000
C=CC(=O)N1CC[C@H](C(=O)N(C)[C@H](C(=O)N[C@H]2Cc3cc(CF)cc(c3)-c3ccc4c(c3)c(c(-c3cccnc3[C@H](C)OC)n4CC)CC(C)(C)COC(=O)[C@@H]3CCCN(N3)C2=O)C(C)C)C1 (atropisomer, axis not shown) [Example A503]	1000 to 10000	< 5000	100 to 1000	1000 to 10000	1000 to 10000	10 to 100	1000 to 10000	–	–	–	–	–
C=CC(=O)N1C[C@@H](C)N(C(=O)N(C)[C@H](C(=O)N[C@H]2Cc3nc(cs3)-c3ccc4c(c3)c(c(-c3cccnc3[C@H](C)OC)n4CC)CC(C)(C)COC(=O)[C@@H]3CCCN(N3)C2=O)C(C)C)[C@H](C)C1 (atropisomer, axis not shown) [Example A388]	10 to 100	< 5000	10 to 100	< 10	10 to 100	< 10	< 10	–	–	–	–	–
C=CC(=O)N1CC[C@H](C(=O)N(C)[C@H](C(=O)N[C@H]2Cc3nc(cs3)-c3ccc4c(c3)c(c(-c3cccnc3[C@H](C)OC)n4CC(F)(F)F)CC(C)(C)COC(=O)[C@@H]3CCCN(N3)C2=O)C(C)C)C1 (atropisomer, axis not shown) [Example A502]	1000 to 10000	< 5000	100 to 1000	100 to 1000	100 to 1000	100 to 1000	1000 to 10000	–	–	–	–	–
CCn1c(-c2cccnc2[C@H](C)OC)c2c3cc(ccc31)-c1cnc(o1)C[C@H](NC(=O)[C@H](C(C)C)N(C)C(=O)[C@H]1CCN(C(=O)C#CC(C)(C)N(C)C)C1)C(=O)N1CCC[C@H](N1)C(=O)OCC(C)(C)C2 (atropisomer, axis not shown) [Example A692, (3S)-1-(4-(dimethylamino)-4-methylpent-2-ynoyl)-N-((2S)-1-(((6^3S,4S)-1^1-ethyl-1^2-(2-((S)-1-methoxyethyl)pyridin-3-yl)-10,10-dimethyl-5,7-dioxo-6^1,6^2,6^3,6^4,6^5,6^6-hexahydro-1^1H-8-oxa-2(5,2)-oxazola-1(5,3)-indola-6(1,3)-pyridazinacycloundecaphane-4-yl)amino)-3-methyl-1-oxobutan-2-yl)-N-methylpyrrolidine-3-carboxamide]	> 10000	< 5000	100 to 1000	> 10000	1000 to 10000	< 10	1000 to 10000	–	–	–	–	–
C=CC(=O)N1CC[C@H](C(=O)N(C)[C@H](C(=O)N[C@H]2Cc3cc(O)cc(c3)-c3ccc4c(c3)c(c(-c3cncc5c3[C@@H](OC)CC5)n4CC)CC(C)(C)COC(=O)[C@@H]3CCCN(N3)C2=O)C(C)C)C1 [Example A275]	100 to 1000	< 5000	10 to 100	100 to 1000	10 to 100	10 to 100	100 to 1000	–	–	–	–	–
C=CC(=O)N1CC[C@H](C(=O)N(C)[C@H](C(=O)N[C@H]2Cc3cccc(c3)-c3ccc4c(c3)c(c(-c3cc(CN(C)C)cnc3[C@H](C)OC)n4CC)CC(C)(C)COC(=O)[C@@H]3CCCN(N3)C2=O)C(C)C)C1 (atropisomer, axis not shown) [Example A522]	1000 to 10000	< 5000	1000 to 10000	1000 to 10000	1000 to 10000	100 to 1000	1000 to 10000	–	–	–	–	–
CCn1c(-c2cccnc2[C@H](C)OC)c2c3cc(ccc31)-c1cccc(c1)C[C@H](NC(=O)[C@H](C(C)C)N1CO[C@@]3(CCN(C(=O)C#CC(C)(C)N4CCC4)C3)C1=O)C(=O)N1CCC[C@H](N1)C(=O)OCC(C)(C)C2 (atropisomer, axis not shown) [Example A733]	> 10000	< 5000	100 to 1000	> 10000	1000 to 10000	10 to 100	> 10000	–	–	–	–	–
C=CC(=O)N1CCN(C(=O)N(C)[C@H](C(=O)N[C@H]2Cc3nc(cs3)-c3ccc4c(c3)c(c(-c3cccnc3[C@H](C)OC)n4CC(F)(F)F)CC(C)(C)COC(=O)[C@@H]3CCCN(N3)C2=O)C(C)C)CC12CC2 (atropisomer, axis not shown) [Example A679]	100 to 1000	< 5000	10 to 100	10 to 100	10 to 100	10 to 100	10 to 100	–	–	–	–	–
CCn1c(-c2cccnc2[C@H](C)OC)c2c3cc(ccc31)-c1csc(n1)C[C@H](NC(=O)[C@H](C(C)C)N(C)C(=O)N1CCN(C(=O)/C=C/CN3CCOCC3)C3(CC3)C1)C(=O)N1CCC[C@H](N1)C(=O)OCC(C)(C)C2 (atropisomer, axis not shown) [Example A665]	100 to 1000	< 5000	100 to 1000	10 to 100	10 to 100	10 to 100	10 to 100	–	–	–	–	–
